Active and inactive are the calls of the source. The rule behind the calls is not given here.
Legend:
Homo sapiens [1] = organism: Homo sapiens; experiment: Competitive molecular glue activity at fluorescein maleimide-labeled FKBP12 C22V/E108C mutant (unknown origin)/6 His-tagged BRD4 BD2 domain (unknown origin) assessed as ternary complex formation incubated for 30 mins in presence of FKBP12 ligand 18(S)-Me 29 by fluorescence polarization analysis
Homo sapiens [2] = organism: Homo sapiens; experiment: Competitive molecular glue activity at Strep-tagged EGFP-FKBP12 (unknown origin) extracted from Escherichia coli BL21 gold cells/6 His-tagged BRD4 BD2 domain (unknown origin) assessed as ternary complex formation incubated for 30 mins by HTRF assay
Homo sapiens [3] = organism: Homo sapiens; experiment: Competitive molecular glue activity at fluorescein maleimide-labeled FKBP12 C22V/E108C mutant (unknown origin)/6 His-tagged BRD4 BD2 domain (unknown origin) assessed as ternary complex formation incubated for 30 mins by fluorescence polarization analysis
[4] = Competitive molecular glue activity at fluorescein maleimide-labeled FKBP12 C22V/E108C mutant (unknown origin)/6 His-tagged BRD4 BD2 domain (unknown origin) assessed as ternary complex formation by measuring dissociation constant incubated for 30 mins by fluorescence polarization analysis; design: species or system Homo sapiens
Homo sapiens [5] = organism: Homo sapiens; experiment: Competitive molecular glue activity at fluorescein maleimide-labeled FKBP12 C22V/E108C mutant (unknown origin)/6 His-tagged PTPRN (unknown origin) assessed as ternary complex formation incubated for 30 mins in presence of FKBP12 ligand 18(S)-Me 29 by fluorescence polarization analysis
Homo sapiens [6] = organism: Homo sapiens; experiment: Competitive molecular glue activity at Strep-tagged EGFP-FKBP12 (unknown origin) extracted from Escherichia coli BL21 gold cells/6 His-tagged PTPRN (unknown origin) assessed as ternary complex formation incubated for 30 mins by HTRF assay
Homo sapiens [7] = organism: Homo sapiens; experiment: Competitive molecular glue activity at fluorescein maleimide-labeled FKBP12 C22V/E108C mutant (unknown origin)/6 His-tagged PTPRN (unknown origin) assessed as ternary complex formation incubated for 30 mins by fluorescence polarization analysis
Homo sapiens [8] = organism: Homo sapiens; experiment: Competitive molecular glue activity at fluorescein maleimide-labeled FKBP12 C22V/E108C mutant (unknown origin)/6 His-tagged BRD4 BD1 domain (unknown origin) assessed as ternary complex formation incubated for 30 mins by fluorescence polarization analysis
[9] = molecular target: Bromodomain-containing protein 4 (Homo sapiens) (UniProt O60885); experiment: Displacement of fluorescent JQ1 from BRD4 BD2 (unknown origin) incubated for 30 mins by fluorescence polarization analysis
Homo sapiens [10] = organism: Homo sapiens; experiment: Competitive molecular glue activity at fluorescein maleimide-labeled FKBP12 C22V/E108C mutant (unknown origin)/6 His-tagged BRD4 BD2 domain (unknown origin) assessed as ternary complex formation incubated for 30 mins in presence of JQ1 by fluorescence polarization analysis
Homo sapiens [11] = organism: Homo sapiens; experiment: Competitive molecular glue activity at fluorescein maleimide-labeled FKBP12 C22V/E108C mutant (unknown origin)/6 His-tagged MBP-STAT4 (unknown origin) assessed as ternary complex formation incubated for 30 mins by fluorescence polarization analysis
Homo sapiens [12] = organism: Homo sapiens; experiment: Competitive molecular glue activity at fluorescein maleimide-labeled FKBP12 C22V/E108C mutant (unknown origin)/6 His-tagged MBP-STAT4 (unknown origin) assessed as ternary complex formation incubated for 30 mins in presence of FKBP12 ligand 18(S)-Me 29 by fluorescence polarization analysis
Homo sapiens [13] = organism: Homo sapiens; experiment: Competitive molecular glue activity at Strep-tagged EGFP-FKBP12 (unknown origin) extracted from Escherichia coli BL21 gold cells/6 His-tagged MBP-STAT4 (unknown origin) assessed as ternary complex formation incubated for 30 mins by HTRF assay

C=C[C@@H]1CN(Cc2cn(-c3ccc(OC)cc3)nn2)C(=O)[C@@H]2CCC[C@H]1N2S(=O)(=O)c1cc(Cl)cc(Cl)c1
Activity (Homo sapiens [1]): inactive
Activity (Homo sapiens [2]): Dose-dependent-effect
Activity (Homo sapiens [3]): Dose-dependent-effect
Kd [4]: 394 µM

C=C[C@@H]1CN(Cc2cn(-c3ccc(C(C)=O)cc3)nn2)C(=O)[C@@H]2CCC[C@H]1N2S(=O)(=O)c1cc(Cl)cc(Cl)c1
Kd [4]: 47 µM

C=C[C@@H]1CN(Cc2cn(-c3ccc(N(C)C)cc3)nn2)C(=O)[C@@H]2CCC[C@H]1N2S(=O)(=O)c1cc(Cl)cc(Cl)c1
Kd [4]: 115 µM

COc1ccc(CC[C@@H](OC(=O)[C@@H]2CCCCN2S(=O)(=O)c2cc3c(c([N+](=O)[O-])c2)OCC3)c2cccc(CC(=O)O)c2)cc1OC
Activity (Homo sapiens [5]): inactive
Activity (Homo sapiens [6]): Dose-dependent-effect
Activity (Homo sapiens [7]): Dose-dependent-effect

C=C[C@@H]1CN(Cc2cn(-c3cc(OC)c(OC)c(OC)c3)nn2)C(=O)[C@@H]2CCC[C@H]1N2S(=O)(=O)c1cc(Cl)cc(Cl)c1
Kd [4]: > 500 µM

C=C[C@@H]1CN(Cc2cn(-c3ccc4[nH]ncc4c3)nn2)C(=O)[C@@H]2CCC[C@H]1N2S(=O)(=O)c1cc(Cl)cc(Cl)c1
Kd [4]: 96 µM

C=C[C@@H]1CN(Cc2cn(-c3ccc(OC)c(Cl)c3)nn2)C(=O)[C@@H]2CCC[C@H]1N2S(=O)(=O)c1cc(Cl)cc(Cl)c1
Kd [4]: 83 µM

C=C[C@@H]1CN(Cc2cn(-c3ccc(C(C)=O)c(OC)c3)nn2)C(=O)[C@@H]2CCC[C@H]1N2S(=O)(=O)c1cc(Cl)cc(Cl)c1
Kd [4]: 22 µM

C=C[C@@H]1CN(Cc2cn(-c3ccc(OC)c(OC)c3)nn2)C(=O)[C@@H]2CCC[C@H]1N2S(=O)(=O)c1cc(Cl)cc(Cl)c1
Activity (Homo sapiens [1]): inactive
Activity (Homo sapiens [8]): inactive
Activity [9]: inactive
Activity (Homo sapiens [10]): inactive
Kd [4]: 27 µM

C=C[C@H]1CN(Cc2ccccn2)C(=O)[C@@H]2CCC[C@H]1N2S(=O)(=O)c1cc(-c2ccccc2)c2nc(-c3ccccc3)sc2c1
Activity (Homo sapiens [11]): Dose-dependent-effect
Activity (Homo sapiens [12]): inactive
Activity (Homo sapiens [13]): Dose-dependent-effect

C=C[C@@H]1CN(Cc2cn(-c3ccc(OC(C)C)cc3)nn2)C(=O)[C@@H]2CCC[C@H]1N2S(=O)(=O)c1cc(Cl)cc(Cl)c1
Kd [4]: 144 µM

From ChEMBL document CHEMBL6134911, “Broad Target Screening Reveals Abundance of FKBP12-Based Molecular Glues in Focused Libraries” (J Med Chem, 2025)
